Laboratory results reported in US20040192641A1, “Special preparation of anticancer drugs made by novel nanotechnology” (priority 2003, published 2004).
Marks after values point to notes of the source that are not given here.

Columns and labels:
tumor S-180 = assay: Stained dead tumor cells in peritoneal fluid of tumor-bearing mice (CUR); type: in vivo; settings: 12th day of tumor S-180 inoculation
Source text: The acceptable criterion for determining the anti-tumor efficacy of the free CUR and PK-CUR-NP are the determination of the life span prolongation.
The number of dead cells in the peritoneal fluid of mice treated with PK-CUR-NP increased life span when compared to free CUR.

L-120 leukemia = assay: Survival of mice bearing leukemia (free HHT vs PK-HHT-NP); type: in vivo
Source text: Methods: L-120 leukemia mice, weight 20-22 g were used in the experiment. […] The dose of PK-HHT-NP is equivalent of free HHT. (All the following comparing experiments are used same methods).

[1] = Pharmacokinetic study: tissue AUC; type: in vivo, mice; settings: 0.5 mg HHT/kg via the tail
Experimental: Present example described Pharmacokinetic studied of NP. Free HHT and PK-HHT-NP were given to mice via the tail at dose of 0.5 mg HHT/kg. Other methods are as same as method of Example 22.

breast carcinoma MCF-7 = assay: Inhibition of tumor cell proliferation, MCF-7; type: cell-based; settings: Homo sapiens, MCF7; 1 μg/ml, 72 hours
Experimental: (§1) Human tumor cell lines: Hela leukemia HL-60, malignant melanocarcinoma B16, oral epidermoid carcinoma (KB), lung carcinoma (A549), breast carcinoma MCF-7, adenocarcinoma of stomach.
Animal tumor cell lines: Walker carcinoma, LLC-WRC-256, malignant melanoma (RMMI 1846), 3T3, and S-180 sarcoma (CCRF-180). All lines were routinely cultured in the RPMI1640 medium supplemented 20% fetal calf serum. The experiment was carried out in 96 microplate, each well had 5×10^5 cells and given desired concentration of 1 μg/ml (1×10^−6 g/ml) drug. Then the plate was incubated at 37° C. in an atmosphere of humidified air enriched with 5 percent carbon dioxide for 72 hours.
(§2) Inhibition percent rate of tumor cell proliferation was obtained according to the bellow formula. [formula]

HL-60 cells = assay: Differentiation of human leukemic cells (HL-60), Example 57; type: cell-based
Experimental: Cell Lines. HL-60 cells were established from a patient with acute myeloid leukemia. The cells were cultured in culture flasks with RPMI plus 10% FCS.
Studies of Induction of Differentiation. Differentiation of HL-60 cells was assessed by their abilities to produced superoxide as measured by reduction of NBT, by NSE staining and by morphology as detected on cytospin preparations stained with Diff-Quick stain Set, and by analysis of membrane-bound differentiation markers with two-color immunofluorescence. Briefly, cells were preincubated at 4° C. for 60 min in 10% human AB serum and then with FITC-conjugated mouse IgGI isotype control. Analysis of fluorescence was performed on a flow cytometer.
Cell Cycle Analysis. The cell cycle was analyzed by flow cytometry after 60 h of incubation of HL-60 cells either with or without HHT (10^−8 M) as described. Briefly, the cells were fixed in cold methanol and incubated for 30 min at 4° C. in the dark with a solution of 50 μg/ml propidium iodide, 1 mg/ml Rnase, and 0.1% NP40. Analysis was performed immediately after staining using the CELLFIT program whereby the S-phase was calculated with Rfit model.
Clonogenic Assay in soft Agar. HL-60 cells were culture in a two-layer soft agar system for 10 days without adding any growth factors as described previously, and colonies were counted using an inverted microscope. […]

L1210 leukemia cells = assay: Anti-leukemia activity against lymphoid leukemia L1210 in mice (survival); type: in vivo; settings: Example 54; i.p. once a day; dose 1, 10, 20 mg/kg/day, group not stated
Experimental: Animals: Adult DBA/2J male mice, 6 to 8 weeks old. All animals weighed approximately 25 g when used in experiments. Mice were assigned randomly to treatment and control groups. Each member of which received identical dosed (i.p.) of PK or 0.9% NaCl solution for all injections. Volumes were 0.01 ml/g body weight.
Tumor: L1210 or P388 leukemia cells induced in mice by inoculation with L1210 or P388 leukemia cells (1.0×10^5).
The leukemia cells were passed i.p. weekly. L1210 or P388 cells were cultured at 37° C. in RPMI-1640 medium (GIBCO) without antibiotics and supplemented with 10% fetal calf serum.
After the tumor implantation (1×10^5 leukemia cells), PK was injected intraperitoneally once a day. The treatment was started between the end of 2nd and 6th day after inoculation. Dose of PK was 25 mg/kg/day for PK groups. Control mice were treated with same value of 0-9% NaCl. Anti-leukemia activity was expressed as T/C %. T is median survival days of treated group and C is that of control group. A T/C value was greater that 100% means the treated mice is surviving longer than the control mice. […] The statistical significance of data was determined by student's test. […]
After the tumor implantation (1×10^5 leukemia cells), PK-HHT-SSL was injected intraperitoneally once a day. […] Anti-leukemia activity was expressed as T/C %. […] The statistical significance of data was determined by student's test.

all cancer cells = assay: Inhibition of tumor cell proliferation, all cancer cells (statement); type: cell-based
Experimental: as §1
Animal tumor cell lines: Walker carcinoma, LLC-WRC-256, malignant melanoma (RMMI 1846), 3T3, and S-180 sarcoma (CCRF-180). All lines were routinely cultured in the RPMI1640 medium supplemented 20% fetal calf serum. The experiment was carried out in 96 microplate, each well had 5×10^5 cells and given desired concentration of 1 μg/ml (1×10^−6 g/ml) drug. Then the plate was incubated at 37° C. in an atmosphere of humidified air enriched with 5 percent carbon dioxide for 72 hours. Concentration of ELE or PK-ELE-NP is 50 ng/ml.
as §2

Molecule: C=C1C[C@@]2(O)O[C@@]3(C[C@H]2C(C)C)[C@@H](C)CC[C@@H]13 [CUR, Curcumol]
- Number of stained dead tumor cells (1 × 10^6 cells mL^−1) (tumor S-180): 5.36 ± 0.95 1 × 10^6 cells mL^−1

Molecule: COC(=O)C[C@](O)(CCCC(C)(C)O)C(=O)O[C@@H]1C(OC)=C[C@]23CCCN2CCc2cc4c(cc2[C@H]13)OCO4 [HHT, Homoharringtonine]
- Survival time T/L days (L-120 leukemia; Dose 1 mg/kg): 5/9
- T/C (%) (L-120 leukemia; Dose 1 mg/kg): 55.6%
- Survival time T/L days (L-120 leukemia; Dose 5 mg/kg): 27/9
- T/C (%) (L-120 leukemia; Dose 5 mg/kg): 300%
- Tissue AUC, Blood [1]: 3.0 µg·h/g
- Tissue AUC, Cancer [1]: 12.0 µg·h/g
- Tissue AUC, Heart [1]: 89.2 µg·h/g
- Tissue AUC, Kidney [1]: 243.2 µg·h/g
- Tissue AUC, Liver [1]: 168.8 µg·h/g
- Tissue AUC, Lung [1]: 138.9 µg·h/g
- Tissue AUC, Spleen [1]: 192.8 µg·h/g
- inhibition at 1 µg/mL (breast carcinoma MCF-7): 78.5 ± 7.9%
- NBT (%) (HL-60 cells): 65* %
- Survival time (L1210 leukemia cells): 15.6 ± 2.8 days

Molecule: Eelemene
- Percent rates of inhibition (all cancer cells): more than 70%
